From ChEMBL document CHEMBL3046561, “Feeding deterrents from Dictamnus dasycarpus Turcz against two stored-product insects” (J Agric Food Chem, 2002)

Tests used:
[1] = system: Tribolium castaneum; assay: Antifeedant activity against adult of Tribolium castaneum (red flour beetle) assessed as efficiency of conversion of ingested food at 30 ppm after 3 days relative to control; format: functional
[2] = system: Tribolium castaneum; assay: Antifeedant activity against larvae of Tribolium castaneum (red flour beetle) assessed as efficiency of conversion of ingested food at 100 ppm after 3 days relative to control; format: functional, Instar larval stage
[3] = system: Tribolium castaneum; assay: Antifeedant activity against larvae of Tribolium castaneum (red flour beetle) assessed as mortality at 100 ppm after 3 days relative to control; format: functional; settings: 72 h
[4] = system: Sitophilus zeamais; assay: Antifeedant activity against adult of Sitophilus zeamais assessed as mortality at 100 ppm after 3 days relative to control; format: functional; settings: 72 h
[5] = system: Tribolium castaneum; assay: Antifeedant activity against adult of Tribolium castaneum (red flour beetle) assessed as feeding deterrence index at 100 ppm after 3 days relative to control; format: functional
[6] = system: Tribolium castaneum; assay: Antifeedant activity against larvae of Tribolium castaneum (red flour beetle) assessed as efficiency of conversion of ingested food at 300 ppm after 3 days relative to control; settings: Instar larval stage, 72 h
[7] = system: Sitophilus zeamais; assay: Antifeedant activity against adult of Sitophilus zeamais assessed as feeding deterrence index at 300 ppm after 3 days relative to control; format: functional
[8] = system: Tribolium castaneum; assay: Antifeedant activity against adult of Tribolium castaneum (red flour beetle) assessed as relative growth rate at 3 ppm after 3 days relative to control; format: functional
[9] = system: Sitophilus zeamais; assay: Antifeedant activity against adult of Sitophilus zeamais assessed as efficiency of conversion of ingested food at 10 ppm after 3 days relative to control; format: functional
[10] = system: Tribolium castaneum; assay: Antifeedant activity against adult of Tribolium castaneum (red flour beetle) assessed as relative consumption rate at 300 ppm after 3 days relative to control; format: functional
[11] = system: Sitophilus zeamais; assay: Antifeedant activity against adult of Sitophilus zeamais assessed as relative growth rate at 300 ppm after 3 days relative to control; format: functional
[12] = system: Sitophilus zeamais; assay: Antifeedant activity against adult of Sitophilus zeamais assessed as relative growth rate at 100 ppm after 3 days relative to control; format: functional
[13] = system: Tribolium castaneum; assay: Antifeedant activity against larvae of Tribolium castaneum (red flour beetle) assessed as mortality at 3 ppm after 3 days relative to control; format: functional; settings: 72 h
[14] = system: Tribolium castaneum; assay: Antifeedant activity against larvae of Tribolium castaneum (red flour beetle) assessed as mortality at 30 ppm after 3 days relative to control; format: functional; settings: 72 h
[15] = system: Tribolium castaneum; assay: Antifeedant activity against larvae of Tribolium castaneum (red flour beetle) assessed as relative consumption rate at 300 ppm after 3 days relative to control; format: functional
[16] = system: Tribolium castaneum; assay: Antifeedant activity against larvae of Tribolium castaneum (red flour beetle) assessed as efficiency of conversion of ingested food at 30 ppm after 3 days relative to control; format: functional, Instar larval stage
[17] = system: Tribolium castaneum; assay: Antifeedant activity against adult of Tribolium castaneum (red flour beetle) assessed as feeding deterrence index at 30 ppm after 3 days relative to control; format: functional
[18] = system: Tribolium castaneum; assay: Antifeedant activity against larvae of Tribolium castaneum (red flour beetle) assessed as relative consumption rate at 3 ppm after 3 days relative to control; format: functional
[19] = system: Tribolium castaneum; assay: Antifeedant activity against larvae of Tribolium castaneum (red flour beetle) assessed as relative consumption rate at 30 ppm after 3 days relative to control; format: functional
[20] = system: Sitophilus zeamais; assay: Antifeedant activity against adult of Sitophilus zeamais assessed as efficiency of conversion of ingested food at 300 ppm after 3 days relative to control; format: functional
[21] = system: Tribolium castaneum; assay: Antifeedant activity against adult of Tribolium castaneum (red flour beetle) assessed as efficiency of conversion of ingested food at 300 ppm after 3 days relative to control; format: functional, Instar larval stage
[22] = system: Sitophilus zeamais; assay: Antifeedant activity against adult of Sitophilus zeamais assessed as relative growth rate at 3 ppm after 3 days relative to control; format: functional
[23] = system: Tribolium castaneum; assay: Antifeedant activity against adult of Tribolium castaneum (red flour beetle) assessed as relative consumption rate at 3 ppm after 3 days relative to control; format: functional
[24] = system: Tribolium castaneum; assay: Antifeedant activity against adult of Tribolium castaneum (red flour beetle) assessed as feeding deterrence index at 300 ppm after 3 days relative to control; format: functional
[25] = system: Sitophilus zeamais; assay: Antifeedant activity against adult of Sitophilus zeamais assessed as efficiency of conversion of ingested food at 30 ppm after 3 days relative to control; format: functional
[26] = system: Tribolium castaneum; assay: Antifeedant activity against adult of Tribolium castaneum (red flour beetle) after 3 days; format: functional, organism-based
[27] = system: Tribolium castaneum; assay: Antifeedant activity against larvae of Tribolium castaneum (red flour beetle) assessed as relative growth rate at 100 ppm after 3 days relative to control; format: functional
[28] = system: Sitophilus zeamais; assay: Antifeedant activity against adult of Sitophilus zeamais after 3 days; format: functional, organism-based
[29] = system: Tribolium castaneum; assay: Antifeedant activity against adult of Tribolium castaneum (red flour beetle) assessed as relative growth rate at 30 ppm after 3 days relative to control; format: functional
[30] = system: Tribolium castaneum; assay: Antifeedant activity against larvae of Tribolium castaneum (red flour beetle) after 3 days; format: functional, organism-based

Compound: COc1c2ccccc2nc2occc12 [DICTAMNINE]
- Activity [1]: 18.35%
- Activity [2]: 17.43%
- mortality at 100 ppm [3]: 0%
- mortality at 100 ppm [4]: 0%
- FDI [5]: 59.58%
- mortality at 300 ppm [6]: 13.2%
- FDI [7]: 68.04%
- Activity [8]: 29.56 µg/mg/day
- Activity [9]: 10.42%
- Activity [10]: 22.21 µg/mg/day
- Activity [11]: 3.21 µg/mg/day
- Activity [12]: 9.49 µg/mg/day
- mortality at 3 ppm [13]: 0%
- mortality at 30 ppm [14]: 0%
- Activity [15]: 84.83 µg/mg/day
- Activity [16]: 20.53%
- FDI [17]: 32.38%
- Activity [18]: 254.2 µg/mg/day
- Activity [19]: 168.23 µg/mg/day
- Activity [20]: 6.81%
- Activity [21]: 13.81%
- Activity [22]: 15.71 µg/mg/day
- Activity [23]: 132.89 µg/mg/day
- FDI [24]: 81.24%
- Activity [25]: 9.78%

Compound: CC1=C2C(=O)O[C@@H](c3ccoc3)[C@]2(C)CCC1 [FRAXINELLONE]
- Activity [1]: 19.1%
- Activity [2]: 13.65%
- mortality at 100 ppm [3]: 0%
- mortality at 100 ppm [4]: 0%
- FDI [5]: 69.28%
- FDI [7]: 77.77%
- Activity [8]: 30.45 µg/mg/day
- Activity [9]: 11.25%
- Activity [10]: 7.39 µg/mg/day
- Activity [11]: 4.26 µg/mg/day
- Activity [12]: 7.05 µg/mg/day
- EC50 [26]: 36.4 ppm
- mortality at 3 ppm [13]: 0%
- mortality at 30 ppm [14]: 0%
- Activity [15]: 30.12 µg/mg/day
- Activity [16]: 17.81%
- Activity [27]: 11.71 µg/mg/day
- FDI [17]: 40.07%
- Activity [18]: 233.06 µg/mg/day
- Activity [19]: 163.61 µg/mg/day
- Activity [20]: 6.56%
- EC50 [28]: 71.2 ppm
- Activity [21]: 10.07%
- Activity [22]: 15.22 µg/mg/day
- Activity [29]: 19.84 µg/mg/day
- EC50 [30]: 29.1 ppm
- Activity [23]: 140.68 µg/mg/day
- FDI [24]: 95.05%
- Activity [25]: 9.57%
